“And” between values parts separate entries of the source, which are not always exact repeats. Identical values can stand only once.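 Step 1: Grow cells in 96-well plates. Step 2: Expose to compound for 48 hours at 5 concentrations. Step 3: Interpolate endpoints linearly; if unreached, use highest concentration. The concentration for 50% growth inhibition is given as GI50. TGI: concentration producing complete growth inhibition.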
Columns and labels:
Assay in all cases: DTP human tumour cell line panel, 48 h; in the data active means GI50 below about 0.43 µM; inactive means the rest
UO-31 renal = system: UO-31 renal
SK-OV-3 ovarian = system: SK-OV-3 ovarian
CAKI-1 renal = system: CAKI-1 renal
UACC-257 melanoma = system: UACC-257 melanoma
SNB-19 CNS = system: SNB-19 CNS
ACHN renal = system: ACHN renal
NCI/ADR-RES ovarian = system: NCI/ADR-RES ovarian
COLO 205 colon = system: COLO 205 colon
T-47D breast = system: T-47D breast
SR leukemia = system: SR leukemia

CC(C)=C[C@@H]1C[C@H](C)[C@H]2CC[C@H](C)[C@H]3C(=O)C(O)=C(C)C(=O)[C@]123
> 100 µM: TGI (UO-31 renal) | TGI (SK-OV-3 ovarian) | TGI (CAKI-1 renal) | TGI (UACC-257 melanoma) | TGI (SNB-19 CNS) | TGI (ACHN renal) | TGI (NCI/ADR-RES ovarian) | TGI (COLO 205 colon)

Nc1nc(Nc2cc(F)c(Cl)c(F)c2)cc(=O)[nH]1
> 100 µM: TGI (SK-OV-3 ovarian) | TGI (CAKI-1 renal) | TGI (UACC-257 melanoma) | TGI (T-47D breast) | TGI (SNB-19 CNS) | TGI (ACHN renal) | TGI (NCI/ADR-RES ovarian) | TGI (COLO 205 colon)

COc1c(-c2nc3nc(N4CCN(C)CC4)ccc3[nH]2)cc(OC)c2c1nc(CCl)n2C
> 100 µM: TGI (SNB-19 CNS) | TGI (NCI/ADR-RES ovarian)
32.8 µM: TGI (UO-31 renal)
33.2 µM: TGI (CAKI-1 renal)
38.9 µM: TGI (T-47D breast)
31.1 µM: TGI (COLO 205 colon)
78.3 µM: TGI (UACC-257 melanoma)
26.9 µM: TGI (ACHN renal)
76.6 µM: TGI (SK-OV-3 ovarian)

Cc1ccc(C(=O)C2CC3(CCC2(O)c2ccc(C)cc2)CC(=O)Nc2ccccc2C3=O)cc1 (configuration not stated)
> 100 µM: TGI (UO-31 renal) | TGI (SK-OV-3 ovarian) | TGI (CAKI-1 renal) | TGI (UACC-257 melanoma) | TGI (T-47D breast) | TGI (SNB-19 CNS) | TGI (SR leukemia) | TGI (NCI/ADR-RES ovarian) | TGI (COLO 205 colon)

COc1ccc2c(C=O)c3n(c(=O)c2c1OC)CCc1cc2c(cc1-3)OCO2
> 100 µM: TGI (UO-31 renal) | TGI (SK-OV-3 ovarian) | TGI (CAKI-1 renal) | TGI (UACC-257 melanoma) | TGI (T-47D breast) | TGI (SNB-19 CNS) | TGI (ACHN renal) | TGI (NCI/ADR-RES ovarian)
82 µM: TGI (COLO 205 colon)

COC1=C(C)C(=O)C2=C(C1=O)C1C3CC4=C(C(=O)C(OC)=C(C)C4=O)C(CNC(=O)C(C)=O)N3C(C#N)C(C2)N1C (configuration not stated)
0.00608 µM: TGI (T-47D breast)
inactive: GI50 (NCI/ADR-RES ovarian) 1.16 µM
active: GI50 (SK-OV-3 ovarian) 0.00656 µM and 0.0382 µM | GI50 (CAKI-1 renal) 1.63 pM | GI50 (UACC-257 melanoma) 5.76 pM | GI50 (T-47D breast) 0.000553 µM | GI50 (ACHN renal) 0.00366 µM
4.05 µM and 2.76 µM: TGI (NCI/ADR-RES ovarian)
1.45 µM and 0.958 µM: TGI (SNB-19 CNS)
0.417 µM and 1.55 µM: TGI (SK-OV-3 ovarian)
1.16 µM and 1.23 µM: TGI (ACHN renal)
0.126 µM: TGI (CAKI-1 renal)

CC1SCCc2nc3ccccc3n21 (configuration not stated)
> 100 µM: TGI (UO-31 renal) | TGI (SK-OV-3 ovarian) | TGI (CAKI-1 renal) | TGI (UACC-257 melanoma) | TGI (T-47D breast) | TGI (SNB-19 CNS) | TGI (SR leukemia) | TGI (NCI/ADR-RES ovarian) | TGI (COLO 205 colon)

Cc1ccc(C)c(C(=O)CC2OC(O)C(Cl)C2Cl)c1 (configuration not stated)
84.4 µM: TGI (CAKI-1 renal)
> 100 µM: TGI (UO-31 renal) | TGI (SK-OV-3 ovarian) | TGI (UACC-257 melanoma) | TGI (SNB-19 CNS) | TGI (ACHN renal) | TGI (SR leukemia) | TGI (COLO 205 colon)

CC(=O)OC/C=C/Cn1nc(Br)c(=O)[nH]c1=O
> 100 µM: TGI (UO-31 renal) | TGI (CAKI-1 renal) | TGI (UACC-257 melanoma) | TGI (T-47D breast) | TGI (SNB-19 CNS) | TGI (ACHN renal) | TGI (SR leukemia) | TGI (NCI/ADR-RES ovarian) | TGI (COLO 205 colon)

O=C(C[N+]1(c2ccccc2)CCOCC1)c1ccccc1
> 100 µM: TGI (UO-31 renal) | TGI (CAKI-1 renal) | TGI (UACC-257 melanoma) | TGI (T-47D breast) | TGI (SNB-19 CNS) | TGI (ACHN renal) | TGI (SR leukemia) | TGI (NCI/ADR-RES ovarian)

CCc1nc2cc(F)ccc2[nH]c1=O
> 100 µM: TGI (UO-31 renal) | TGI (SK-OV-3 ovarian) | TGI (CAKI-1 renal) | TGI (UACC-257 melanoma) | TGI (SNB-19 CNS) | TGI (ACHN renal) | TGI (NCI/ADR-RES ovarian) | TGI (COLO 205 colon)

O=[N+]([O-])c1cccc2c1[nH]c1c(-c3ccccc3)nccc12
4.23 µM: TGI (COLO 205 colon)
7.75 µM: TGI (SK-OV-3 ovarian)
6.29 µM: TGI (UACC-257 melanoma)
4.44 µM: TGI (NCI/ADR-RES ovarian)
4.22 µM: TGI (UO-31 renal)
> 100 µM: TGI (SNB-19 CNS)

Nc1nc2c(ccc3ccccc32)[nH]1
> 10 µM: TGI (UO-31 renal) | TGI (SK-OV-3 ovarian) | TGI (CAKI-1 renal) | TGI (T-47D breast) | TGI (SNB-19 CNS) | TGI (ACHN renal) | TGI (SR leukemia) | TGI (NCI/ADR-RES ovarian) | TGI (COLO 205 colon)

COc1ccc(OC)c2c(Nc3ccc(S(=O)(=O)O)c4cc(S(=O)(=O)O)cc(S(=O)(=O)O)c34)cc(C)nc12
> 100 µM: TGI (UO-31 renal) | TGI (SK-OV-3 ovarian) | TGI (CAKI-1 renal) | TGI (UACC-257 melanoma) | TGI (T-47D breast) | TGI (ACHN renal) | TGI (NCI/ADR-RES ovarian) | TGI (COLO 205 colon)

Cc1c(N(Cc2ccccc2)Cc2ccccc2)nc(S(C)(=O)=O)nc1S(C)(=O)=O
16.4 µM: TGI (ACHN renal)
24.7 µM: TGI (UO-31 renal)
26.1 µM: TGI (SNB-19 CNS)
4.18 µM: TGI (SR leukemia)
27.7 µM: TGI (SK-OV-3 ovarian)
3.76 µM: TGI (UACC-257 melanoma)
20.2 µM: TGI (CAKI-1 renal)

N=c1sc(N2CCOCC2)nn1CC(=O)c1ccccc1
> 100 µM: TGI (UO-31 renal) | TGI (SK-OV-3 ovarian) | TGI (CAKI-1 renal) | TGI (UACC-257 melanoma) | TGI (T-47D breast) | TGI (SNB-19 CNS) | TGI (ACHN renal) | TGI (NCI/ADR-RES ovarian) | TGI (COLO 205 colon)

CC(=O)Oc1cc(OC(C)=O)c2c(c1C)CC[C@@H]1[C@@H]2CC[C@]2(C)[C@@H](OC(C)=O)CC[C@@H]12
52.1 µM: TGI (CAKI-1 renal)
73.6 µM: TGI (SR leukemia)
31.4 µM: TGI (UO-31 renal)
33.3 µM: TGI (SNB-19 CNS)
31.2 µM: TGI (ACHN renal)
32 µM: TGI (UACC-257 melanoma)
57.6 µM: TGI (NCI/ADR-RES ovarian)

Nc1nc(N)c2ncn(Cc3ccccc3)c2n1
> 100 µM: TGI (UO-31 renal) | TGI (SK-OV-3 ovarian) | TGI (CAKI-1 renal) | TGI (UACC-257 melanoma) | TGI (T-47D breast) | TGI (SNB-19 CNS) | TGI (ACHN renal) | TGI (NCI/ADR-RES ovarian) | TGI (COLO 205 colon)

CCCCSC1=N/C(=C\c2ccccc2O)C(Cl)=N1
> 100 µM: TGI (UO-31 renal) | TGI (SK-OV-3 ovarian) | TGI (CAKI-1 renal) | TGI (UACC-257 melanoma) | TGI (T-47D breast) | TGI (SNB-19 CNS) | TGI (ACHN renal) | TGI (NCI/ADR-RES ovarian) | TGI (COLO 205 colon)

NS(=O)(=O)C1CCCCC1C(=O)NNC(=O)C(=O)Nc1nc(=S)[nH][nH]1 (configuration not stated)
> 100 µM: TGI (UO-31 renal) | TGI (SK-OV-3 ovarian) | TGI (CAKI-1 renal) | TGI (UACC-257 melanoma) | TGI (SNB-19 CNS) | TGI (ACHN renal) | TGI (SR leukemia) | TGI (COLO 205 colon)

Cc1cccc2c1Oc1ncccc1C2NC(=O)CN(C)C (configuration not stated)
> 10 µM: TGI (UO-31 renal) | TGI (SK-OV-3 ovarian) | TGI (UACC-257 melanoma) | TGI (SNB-19 CNS) | TGI (ACHN renal) | TGI (SR leukemia) | TGI (NCI/ADR-RES ovarian)

Cc1nnc(N)s/c1=N/O
> 100 µM: TGI (UO-31 renal) | TGI (SK-OV-3 ovarian) | TGI (CAKI-1 renal) | TGI (UACC-257 melanoma) | TGI (T-47D breast) | TGI (SNB-19 CNS) | TGI (ACHN renal) | TGI (NCI/ADR-RES ovarian) | TGI (COLO 205 colon)

C(/Cc1ccc2c(c1)OCO2)=N\NC1=NCCCCN1
> 100 µM: TGI (UO-31 renal) | TGI (SK-OV-3 ovarian) | TGI (UACC-257 melanoma) | TGI (T-47D breast) | TGI (SNB-19 CNS) | TGI (ACHN renal) | TGI (SR leukemia) | TGI (NCI/ADR-RES ovarian) | TGI (COLO 205 colon)

CC(=O)Oc1c(OC(C)C)cc(=O)n2ccsc12
> 100 µM: TGI (UO-31 renal) | TGI (SK-OV-3 ovarian) | TGI (CAKI-1 renal) | TGI (UACC-257 melanoma) | TGI (SNB-19 CNS) | TGI (ACHN renal) | TGI (NCI/ADR-RES ovarian) | TGI (COLO 205 colon)

Source: PubChem BioAssay (NCI)
